# Where “and” joins values, the source holds several entries; their conditions need not be identical. Equal entries are not always repeated. Where no end group is shown, it is not given here.
# Tested on: CIA transgenic TNF-luc mice
# Experiment: collagen type II-induced arthritis in transgenic TNF-luc mice (swelling, scores, weight)
# Assay type: in vivo, BALB/c transgenic TNF-luc mice
# Design: key to joint index score / arthritis index score: 0–4 per paw, four paws summed, max 16; key to swelling degree of right ankle: cm, day n thickness minus initial ankle thickness; key to systemic score: systemic score points, max 8
# Settings: for left ankle swelling / right ankle swelling changes / arthritis index score / clinical score: Adalimumab 8 mg/kg, mPEG-SC20k-HM-3 20 mg/kg; for right ankle swelling changes: CIA TNF-luc mice; for right ankle swelling changes / arthritis index score / clinical score: mean ± SD; for arthritis index score / clinical score: CIA chronic model; for systemic score / joint index score / swelling degree of right ankle: 20 mg/kg
# Experimental: 8 animals are randomly divided into 4 groups (n=2), a normal group, a model group, a positive drug group and a test group. On day 0, for the primary immunization, mice are hypodermically injected with 50 μL collagen emulsifier (containing CII 100 μg/ mouse) at the tail root of mice for sensitization. On day 0, initial ankle widths, initial foot palm widths and initial toe thicknesses of left and right feet of mice in each group are measured separately.
# After day 21, the same dosage of emulsifier is used for second immunization at the tail root. After the symptoms such as redness and swelling of joints appear on the four toes of mice, continuous administration is performed for 15 days. The normal group and the model group are separately hypodermically injected with 0.9% normal saline (0.2 mL/20 g of body weight), once every 2 days, 7 times in total. The positive drug Adalimumab group is hypodermically injected with Adalimumab (8 mg/kg of body weight), once every 15 days, once in total. The test treatment group is hypodermically injected with mPEG-SC20k-HM-3 (20 mg/kg of body weight), once every 2 days, 7 times in total.
# Every 2 days, the thickness of the ankle, the width of the foot palm and the thickness of the toes of each group of mice are measured with a vernier caliper.
# Swelling degree of left ankle (cm)=swelling thickness of left ankle on day n of the experiment−measured initial thickness of left ankle.
# Swelling degree of right ankle (cm)=swelling thickness of right ankle on day n of the experiment−measured initial thickness of right ankle.
# The joints of the mouse paw are observed with naked eyes, and the joints are scored every 2 days from day 30. Scoring is performed in terms of level 0 to level 4, 5 levels in total. 0=no erythema or swelling; 1=slight erythema or swelling, with erythema or swelling on one of the front/hind toe joints; 2=erythema or swelling on more than one toe; 3=swelling of paw beneath the ankle or wrist joint; 4=swelling of all paws including the ankle joint. Four paws of the mice are scored separately, and the highest score is 16 points.
# After the secondary inflammation appears, systemic scoring is performed every 2 days, and the scoring standards are as follows:
# Hind foot: no swelling=0 point, swelling of one hind foot=1 point, swelling of two hind feet=2 points.
# Front foot: no swelling=0, swelling of one front foot=1 point, swelling of two front feet=2 points.
# Ears: no redness symptoms and nodules=0 point, redness symptoms or nodules of one ear=1 point, red symptoms and nodules of two ears=2 points.
# Nose: no swelling=0 point, obvious swelling=1 point.
# Tail: no nodule=0 point, nodules=1 point; the highest score is 8 points.
substance,measurement,setting,value
"mPEG-SC20k-Ile-Val-Arg-Arg-Ala-Asp-Arg-Ala-Ala-Val-Pro-Gly-Gly-Gly-Gly-Arg-Gly-Asp ({mPEG‑SC 20k}-IVRRADRAAVPGGGGRGD) [polypeptide III, No. 3]",left ankle swelling,0 d,0.000 ± 0.000 cm
same,right ankle swelling changes,0 d,0.000 ± 0.000 cm
same,left ankle swelling,12 d,0.011 ± 0.004 cm
same,right ankle swelling changes,12 d,0.005 ± 0.021 cm
same,left ankle swelling,15 d,0.028 ± 0.023 cm
same,right ankle swelling changes,15 d,0.003 ± 0.004 cm
same,left ankle swelling,18 d,0.016 ± 0.008 cm
same,right ankle swelling changes,18 d,0.011 ± 0.016 cm
same,left ankle swelling,21 d,0.011 ± 0.010 cm
same,right ankle swelling changes,21 d,0.010 ± 0.011 cm
same,left ankle swelling,24 d,0.008 ± 0.006 cm
same,right ankle swelling changes,24 d,0.007 ± 0.005 cm
same,left ankle swelling,27 d,0.009 ± 0.004 cm
same,right ankle swelling changes,27 d,0.004 ± 0.014 cm
same,left ankle swelling,30 d,0.003 cm
same,right ankle swelling changes,30 d,0.015 ± 0.001 cm
same,arthritis index score,30 d,5.50 ± 0.71
same,clinical score,30 d,4.50 ± 0.71
same,left ankle swelling,33 d,0.007±0.013 cm
same,right ankle swelling changes,33 d,0.018 ± 0.020 cm
same,arthritis index score,33 d,7.00 ± 1.41
same,clinical score,33 d,4.00 ± 0.00
same,left ankle swelling,36 d,0.006 ± 0.006 cm
same,right ankle swelling changes,36 d,0.006 ± 0.008 cm
same,arthritis index score,36 d,6.50 ± 0.71
same,clinical score,36 d,4.00 ± 0.00
same,left ankle swelling,39 d,0.026±0.023 cm
same,right ankle swelling changes,39 d,0.001 ± 0.007 cm
same,arthritis index score,39 d,6.00 ± 0.00
same,clinical score,39 d,4.00 ± 0.00
same,left ankle swelling,42 d,0.004 ± 0.006 cm
same,right ankle swelling changes,42 d,0.017 ± 0.004 cm
same,arthritis index score,42 d,4.50 ± 0.71
same,clinical score,42 d,4.00 ± 0.00
same,left ankle swelling,45 d,0.011±0.004 cm
same,right ankle swelling changes,45 d,0.000 ± 0.006 cm
same,arthritis index score,45 d,4.50 ± 0.71
same,clinical score,45 d,4.00 ± 0.00
same,left ankle swelling,48 d,0.001±0.021 cm
same,right ankle swelling changes,48 d,0.001 ± 0.007 cm
same,arthritis index score,48 d,4.50 ± 0.71
same,clinical score,48 d,5.00 ± 0.00
same,left ankle swelling,51 d,0.023±0.007 cm and 0.023 cm
same,right ankle swelling changes,51 d,0.005 ± 0.007 cm
same,arthritis index score,51 d,4.50 ± 0.71
same,clinical score,51 d,4.00 ± 0.00
same,systemic score,day 33,4.00±0.00
same,joint index score,day 36,6.50±0.71
same,swelling degree of right ankle,day 36,0.006±0.008
same,systemic score,day 36,4.00±0.00
same,joint index score,day 39,6.00±0.00
same,swelling degree of right ankle,day 39,0.001±0.008
same,systemic score,day 39,4.00±0.00
same,joint index score,day 42,4.50±0.7
same,swelling degree of right ankle,day 42,0.001±0.007
same,systemic score,day 42,4.00±0.00
same,joint index score,day 45,4.50±0.71
same,swelling degree of right ankle,day 45,0.000±0.006
same,systemic score,day 45,4.00±0.00
same,joint index score,day 48,4.50±0.71
same,swelling degree of right ankle,day 48,0.001±0.007
same,joint index score,day 51,4.50±0.71
same,swelling degree of right ankle,day 51,0.005±0.007
same,systemic score,day 51,4.00±0.00
